Data taken from patent EP4786483A1, “AURISTATIN DERIVATIVE AND ANTIBODY-DRUG CONJUGATE THEREOF” (priority 2023, dated 2025).
pIC50: −log10 of the molar value.

Legend:
Assay type in all cases: cell-based
[1] = tested on: CD34^+ hematopoietic stem/progenitor cells; assay: Hematologic toxicity of compounds (CD34+ HSC viability, CTG); details: 240 h; cytotoxic drugs; treatment for 10 days; CTG cell viability
Description: Experimental objective: The effects of cytotoxic drugs on the differentiation and development of CD34^+ hematopoietic stem/progenitor cells into the megakaryocytic lineage were investigated, so as to evaluate their potential hematologic toxicity of causing thrombocytopenia.
Experimental design: After resuscitation, bone marrow-mobilized peripheral blood-derived HSCs were seeded at 2000 cells/well/180 µL in an ultra-low attachment 96-well round-bottom plate and stabilized for 4 h. The cells were treated with compounds by performing a 5-fold gradient dilution starting from the highest dose of 1 µM, resulting in a total of 9 concentration points, and this treatment was maintained continuously for 10 days. Cell viability was detected using the CTG reagent (CellTiter-Glo luminescent cell viability detection kit, manufacturer: Promega, Cat. No.: G7571). Table 2. Hematologic toxicity test results of cytotoxic drugs

[2] = tested on: human breast cancer cells KPL-4; assay: Cytotoxicity test for compounds (CellTiter-Glo cell proliferation inhibition); details: Homo sapiens, KPL4, 72 h; 3 days of incubation; CellTiter-Glo; read-out: KPL-4/IC50
Description: (§1) Biological Test Example 1: Cytotoxicity Test for Compounds
(§2) • 96-well clear flat-bottom white plate (Corning, #3610) • RPMI1640 culture medium (Gibco, #A10491-01) • Fetal Bovine Serum (Sigma-Aldrich, #F8687-500ML) • CellTiter-Glo® Luminescent Cell Viability Assay (Promega, # G7572/G7571)
(§3) Human gastric cancer cells NCI-N87 (ATCC, Cat. No.: CRL-5822), human breast cancer cells MDA-MB-468 (Cell Bank of the Committee for Type Culture Collection of the Chinese Academy of Sciences, Cat. No.: TCHu136), and human breast cancer cells KPL-4 (Nanjing Cobioer Biosciences Co., Ltd., Cat. No.: CBP60379) were washed with PBS and digested with 0.25% Trypsin-EDTA trypsin for about 3-10 min. The digestion was terminated with a complete cell culture medium. The cells were centrifuged at 1000 rpm for 5 min, and the supernatant was discarded. The cells were resuspended in a complete cell culture medium. The cell number was counted using a cell counter, and the cells were adjusted to the desired density. 90.0 µL of the cell suspension was added to each well at 3000 cells/well. The cell plate was incubated in a cell incubator at 37°C with 5% CO2 overnight.
(§4) In the experiment, a DMSO control group and test sample groups were set. The cell plate was removed from the incubator to observe cell adherence. After the cells adhered, 10.00 µL of the sample (starting from a final concentration of 10 µM, 5-fold dilution, 9 concentrations) was added to each well. After the mixture was gently shaken uniformly, the plate was incubated in the incubator.
(§5) After 3 days of incubation, 100.0 µL/well of CellTiter-Glo™ (Promega, Cat. No.: G7572/G7571) working solution was added. The plate was shaken on a thermostatic shaker to lyse the cells. After 10 min, the plate was read on a microplate reader.
(§6) Data analysis: GraphPad Prism 8.0 software was used to plot a graph with the Log value of the sample concentration as the abscissa and the Inhibition% as the ordinate. The data were analyzed by Nonlinear regression (curve fit) to obtain the IC50 value of each test sample. Table 1. Inhibition activity of compounds of the present disclosure on cell proliferation

[3] = tested on: human breast cancer cells MDA-MB-468; assay: as above; details: Homo sapiens, MDA-MB-468, 72 h, 3 days of incubation; CellTiter-Glo; read-out: MDA-MD-468/IC50
Description: as §1, §2, §3, §4, §5, §6

[4] = tested on: Human gastric cancer cells NCI-N87; assay: as above; details: Homo sapiens, NCI-N87, 72 h, 3 days of incubation; CellTiter-Glo; read-out: NCI-87/IC50
Description: as §1, §2, §3, §4, §5, §6

Compound: C#CCN(CCc1cccc(N)c1)C(=O)[C@H](C)[C@@H](OC)[C@@H]1CCCN1C(=O)C[C@@H](OC)[C@H]([C@@H](C)CC)N(C)C(=O)[C@@H](NC(=O)[C@H](C(C)C)N(C)C)C(C)C [Example 6, (S)-N-((3R,4S,5S)-1-((S)-2-((1R,2R)-3-((3-aminophenethyl)(prop-2-yn-1-yl)amino)-1-methoxy-2-methyl-3-oxopropyl)pyrrolidin-1-yl)-3-methoxy-5-methyl-1-oxoheptan-4-yl)-2-((S)-2-(dimethylamino)-3-methylbutanamido)-N,3-dimethylbutanamide]
- pIC50 [1]: 8.40
- pIC50 [2]: 8.53
- pIC50 [3]: 7.90
- pIC50 [4]: 8.41

Compound: CC[C@H](C)[C@@H]([C@@H](CC(=O)N1CCC[C@H]1[C@H](OC)[C@@H](C)C(=O)N(CCc1cccc(N)c1)OC)OC)N(C)C(=O)[C@@H](NC(=O)[C@H](C(C)C)N(C)C)C(C)C [Example 7, (S)-N-((3R,4S,5S)-1-((S)-2-((1R,2R)-3-((3-aminophenethyl)(methoxy)amino)-1-methoxy-2-methyl-3-oxopropyl)pyrrolidin-1-yl)-3-methoxy-5-methyl-1-oxoheptan-4-yl)-2-((S)-2-(dimethylamino)-3-methylbutanamido)-N,3-dimethylbutanamide]
- pIC50 [1]: 9.84
- pIC50 [2]: 9.35
- pIC50 [3]: 7.87
- pIC50 [4]: 9.05
